Data from patent publication US20110295343A1, “NEAR-INFRARED ELECTROMAGNETIC MODIFICATION OF CELLULAR STEADY-STATE MEMBRANE POTENTIALS” (priority 2008, published 2011).
“And” between values parts separate entries of the source, which are not always exact repeats. Identical values can stand only once.

System: MRSA (ATCC BAA-43)
Test: MRSA/antimicrobial potentiation, CFU on TSB agar with and without antibiotic after laser (Example XXII, Experiments 1-4)
Format: cell-based, Staphylococcus aureus subsp. aureus
Details: for CFU/ml / AVG / CFU: agar with 30 μg/ml methicillin; for AVG: mean of plates; for CFU: replicate plates; for Meth Effect: CFU with methicillin / without; for Laser Effect (+Meth) / Laser Effect (+M): both on 30 μg/ml methicillin
Experimental: Four separate experiments have been performed.
Eight different laser dosages were used to treat a saline-suspension of logarithmically growing MRSA, labeled A1 to H1.
The treated and a control untreated suspension were diluted and plated in triplicate on trypic soy agar with or without 30 μg/ml methicillin After 24 hrs of growth at 37° C. colonies were counted.
CFU (colony forming units) were compared between the plates with and without methicillin for both control (untreated) and treated MRSA.
The treated and a control untreated suspension were diluted and plated in triplicate on trypic soy agar with or without 30 μg/mlmethicillin.
After 24 hrs of growth at 37° C. colonies were counted.
The treated and a control untreated suspension were diluted and plated in pentuplicate on trypic soy agar with or without 30 μg/ml methicillin.

## COc1cccc(OC)c1C(=O)N[C@@H]1C(=O)N2[C@@H]1SC(C)(C)[C@@H]2C(=O)O [Methicillin]
Exp#2 C2 Cont (no laser)
  CFU/ml: 1.66E+08 CFU/ml
  AVG: 55.3 CFU
  CFU: 42 CFU and 71 CFU and 53 CFU
Exp#2 C2 Exp (laser treated)
  Meth Effect: 0.31
  CFU/ml: 3.80E+07 CFU/ml
  AVG: 12.7 CFU
  CFU: 16 CFU and 12 CFU and 10 CFU
Exp#2 D2, laser Exp / Cont
  Laser Effect (+Meth): 0.04
Exp#2 D2 Cont (no laser)
  Meth Effect: 0.61
  CFU/ml: 1.56E+08 CFU/ml
  AVG: 52 CFU
  CFU: 20 CFU and 65 CFU and 71 CFU
Exp#2 D2 Exp (laser treated)
  Meth Effect: 0.25
  CFU/ml: 7.00E+06 CFU/ml
  AVG: 2.3 CFU
  CFU: 5 CFU and 1 CFU (2×)
Exp#2 E2, laser Exp / Cont
  Laser Effect (+Meth): 0.04
Exp#2 E2 Cont (no laser)
  Meth Effect: 1.04
  CFU/ml: 1.87E+08 CFU/ml
  AVG: 62.3 CFU
  CFU: 68 CFU and 66 CFU and 53 CFU
Exp#2 E2 Exp (laser treated)
  Meth Effect: 0.24
  CFU/ml: 8.00E+06 CFU/ml
  AVG: 2.7 CFU
  CFU: 2 CFU (2×) and 4 CFU
Exp#2 F2, laser Exp / Cont
  Laser Effect (+Meth): 0.22
Exp#2 F2 Cont (no laser)
  Meth Effect: 0.81
  CFU/ml: 2.13E+08 CFU/ml
  AVG: 71 CFU
  CFU: 62 CFU and 64 CFU and 87 CFU
Exp#2 F2 Exp (laser treated)
  Meth Effect: 0.38
  CFU/ml: 4.70E+07 CFU/ml
  AVG: 15.7 CFU
  CFU: 13 CFU and 15 CFU and 19 CFU
Exp#2 G2, laser Exp / Cont
  Laser Effect (+Meth): 0.1
Exp#2 G2 Cont (no laser)
  Meth Effect: 1.04
  CFU/ml: 2.50E+08 CFU/ml
  AVG: 83.3 CFU
  CFU: 75 CFU and 92 CFU and 83 CFU
Exp#2 G2 Exp (laser treated)
  Meth Effect: 0.3
  CFU/ml: 2.50E+07 CFU/ml
  AVG: 8.3 CFU
  CFU: 10 CFU and 7 CFU and 8 CFU
Exp#2 H2, laser Exp / Cont
  Laser Effect (+Meth): 0.17
Exp#2 H2 Cont (no laser)
  Meth Effect: 0.73
  CFU/ml: 2.30E+08 CFU/ml
  AVG: 76.7 CFU
  CFU: 76 CFU and 72 CFU and 82 CFU
Exp#2 H2 Exp (laser treated)
  Meth Effect: 0.45
  CFU/ml: 3.80E+07 CFU/ml
  AVG: 12.7 CFU
  CFU: 13 CFU (2×) and 12 CFU
Exp#3 A3, laser Exp / Cont
  Laser Effect (+M): 0.33
Exp#3 A3 Cont (no laser)
  Meth Effect: 1.03
  CFU/ml: 1.45E+08 CFU/ml
  AVG: 48.4 CFU
Exp#3 A3 Exp (laser treated)
  Meth Effect: 0.52
  CFU/ml: 4.86E+07 CFU/ml
  AVG: 16.2 CFU
Exp#3 B3, laser Exp / Cont
  Laser Effect (+M): 0.27
Exp#3 B3 Cont (no laser)
  Meth Effect: 0.99
  CFU/ml: 2.14E+08 CFU/ml
  AVG: 71.4 CFU
Exp#3 B3 Exp (laser treated)
  Meth Effect: 0.61
  CFU/ml: 5.70E+07 CFU/ml
  AVG: 19 CFU
Exp#3 C3, laser Exp / Cont
  Laser Effect (+M): 0.35
Exp#3 C3 Cont (no laser)
  Meth Effect: 1.01
  CFU/ml: 1.75E+08 CFU/ml
  AVG: 58.4 CFU
Exp#3 C3 Exp (laser treated)
  Meth Effect: 0.53
  CFU/ml: 6.06E+07 CFU/ml
  AVG: 20.2 CFU
Exp#3 D3, laser Exp / Cont
  Laser Effect (+M): 0.07
Exp#3 D3 Cont (no laser)
  Meth Effect: 1.01
  CFU/ml: 1.54E+08 CFU/ml
  AVG: 51.2 CFU
Exp#3 D3 Exp (laser treated)
  Meth Effect: 0.39
  CFU/ml: 1.08E+07 CFU/ml
  AVG: 3.6 CFU
Exp#3 E3, laser Exp / Cont
  Laser Effect (+M): 0.47
Exp#3 E3 Cont (no laser)
  Meth Effect: 0.92
  CFU/ml: 1.52E+08 CFU/ml
  AVG: 50.6 CFU
Exp#3 E3 Exp (laser treated)
  Meth Effect: 0.44
  CFU/ml: 7.08E+07 CFU/ml
  AVG: 23.6 CFU
  CFU: 15 CFU and 24 CFU and 26 CFU and 27 CFU
Exp#3 F3, laser Exp / Cont
  Laser Effect (+M): 0.18
Exp#3 F3 Cont (no laser)
  Meth Effect: 0.73
  CFU/ml: 1.60E+08 CFU/ml
  AVG: 53.2 CFU
Exp#3 F3 Exp (laser treated)
  Meth Effect: 0.35
  CFU/ml: 2.94E+07 CFU/ml
  AVG: 9.8 CFU
Exp#3 G3, laser Exp / Cont
  Laser Effect (+M): 0.12
Exp#3 G3 Cont (no laser)
  Meth Effect: 1.17
  CFU/ml: 2.03E+08 CFU/ml
  AVG: 67.6 CFU
Exp#3 G3 Exp (laser treated)
  Meth Effect: 0.37
  CFU/ml: 2.52E+07 CFU/ml
  AVG: 8.4 CFU
Exp#3 H3, laser Exp / Cont
  Laser Effect (+M): 0.11
Exp#3 H3 Cont (no laser)
  Meth Effect: 1.04
  CFU/ml: 2.26E+08 CFU/ml
  AVG: 75.2 CFU
Exp#3 H3 Exp (laser treated)
  Meth Effect: 0.35
  CFU/ml: 2.52E+07 CFU/ml
  AVG: 8.4 CFU
FIG. 17
  synergistic effect of NIMELS with antibiotic in growth inhibition of MRSA colonies: being potentiated by sub-lethal NIMELS dosimetry
